The record followed here is publication PMC4994406, “Molecular cloning and characterization of a flavonoid-O-methyltransferase with broad substrate specificity and regioselectivity from Citrus depressa” (BMC Plant Biology, 2016).

The target of assay [1] is T1, CdFOMT5 (Citrus depressa, UniProt A0A125T1T5).
T1 construct: gene FOMT5; full-length cDNA from fruit pericarp, C-terminal 6x His tag kept, pET21b(+) BamHI/SalI, E. coli BL21(DE3), Ni-Sepharose
T1 sequence (A0A125T1T5 1-353): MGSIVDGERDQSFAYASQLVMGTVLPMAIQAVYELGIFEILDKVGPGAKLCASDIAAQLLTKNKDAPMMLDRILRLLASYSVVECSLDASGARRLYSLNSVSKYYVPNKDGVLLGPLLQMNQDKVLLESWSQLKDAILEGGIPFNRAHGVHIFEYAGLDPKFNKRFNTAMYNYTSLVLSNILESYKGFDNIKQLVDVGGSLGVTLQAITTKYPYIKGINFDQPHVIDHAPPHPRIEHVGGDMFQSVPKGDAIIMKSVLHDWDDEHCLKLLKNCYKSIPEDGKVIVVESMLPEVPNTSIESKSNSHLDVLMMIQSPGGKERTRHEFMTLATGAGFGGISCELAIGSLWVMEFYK
The assay is described as follows: HPLC of methylated product. The conditions noted are these: 500 uM SAM, 100 uM substrate, 50 mM potassium phosphate pH 7.0, 30 °C, 1 h. The format is biochemical.

For assay [2], the target named is T1, CdFOMT5. The assay is described as follows: HPLC and LC-MS of O-methylated products. It is filed as biochemical. Particulars: 500 uM SAM, 100 uM substrate, 50 mM potassium phosphate pH 7.0, 30 °C, 1 h.

In the case of `O=c1c(O)c(-c2ccccc2)oc2ccccc12` [3-hydroxyflavone], at CdFOMT5 [1], the “HPLC of methylated product” value is given as “the highest activity was observed for 3-hydroxyflavone (flavonol) based on the peak area”.
With `O=c1c(O)c(-c2ccc(O)c(O)c2)oc2cc(O)cc(O)c12` [S, quercetin], the “HPLC and LC-MS of O-methylated products” value at CdFOMT5 [2] is reported as “several peaks corresponding to O-methylated products were detected by HPLC analysis”.
